# Reference: patent US6049003A, “Azoamidine compound” (Wako Pure Chemical Industries, Ltd., priority 1998, dated 2000)
# Assays:
# [1] = emulsion polymerization of styrene with the azoamidine compound as initiator (Table 2); settings: for Polymerization Rate(%): sodium dodecyl sulfate
# Procedure: Distilled water (400 g), sodium dodecyl sulfate (4 g) and azoamidine compound (0.5 g) obtained in Example 1 were mixed with one another and were stirred to give a solution, and 200 g of styrene monomer was added thereto, followed by stirring to make emulsion. The resultant was subjected to polymerization reaction at 50° C. with stirring under nitrogen gas atmosphere. After the polymerization reaction was started, samplings of the reaction solution were conducted at predetermined intervals, and the samples were precipitated by methanol to recover the produced polymer, followed by drying. The polymerization rates at each sampling time were measured.
# The same emulsion polymerization as Example 5 was conducted except for using a typical known azoamidine compound, of 2,2'-azobis(2-methylpropionamidine) dihydrochloride as a polymerization initiator.
# [2] = comparison of solubility in various kinds of solvents (Table 3); assay type: physicochemical
# [3] = decomposition rate constant at 50° C. (Table 1); assay type: physicochemical
# [4] = 10 hours half life temperature; assay type: physicochemical
# [5] = solution polymerization of acrylamide with the azoamidine compound as initiator (Table 1); settings: acrylamide in water, 50° C.
# Procedure: Acrylamide (20 g) was dissolved in 380 g of distilled water and 0.01 g of the azoamidine compound obtained in Example 1 was added thereto as a polymerization initiator. The reaction solution was heated at 50° C. with stirring under nitrogen gas atmosphere to cause polymerization reaction. After the polymerization reaction was started, samplings of the reaction solution were conducted at predetermined intervals, and the samples were precipitated by methanol to recover the produced polymer, followed by drying. The polymerization rates at each sampling time were measured.
# The same polymerization reaction as Example 4 was conducted except for using azoamidine compounds, in which an α-amino acid residue as introduced, of 2,2'-azobis(N-carboxymethyl-2-methylpropionamidine) [drawing 10] or 2,2'-azobis[N-(1-carboxyethyl)-2-methylpropionamidine] [drawing 11] as a polymerization initiator.
# [6] = 50° C., polymerization time 1 H
# [7] = 50° C., polymerization time 1.5 H
# [8] = 50° C., polymerization time 2 H
# [9] = 50° C., polymerization time 3 H
# [10] = 50° C., polymerization time 4 H
# [11] = 50° C., polymerization time 5 H
# [12] = 50° C., polymerization time 6 H
Structure (SMILES),"Polymerization Rate(%) [1, 6] [%]","Polymerization Rate(%) [1, 7] [%]","Polymerization Rate(%) [1, 8] [%]","Polymerization Rate(%) [1, 9] [%]","Polymerization Rate(%) [1, 10] [%]","Polymerization Rate(%) [1, 11] [%]","Polymerization Rate(%) [1, 12] [%]",solubility in Water [2] [%],Polymerization Rate(%) ([5]; polymerization time 1 H),Polymerization Rate(%) ([5]; polymerization time 1.5 H),Polymerization Rate(%) ([5]; polymerization time 2 H),Polymerization Rate(%) ([5]; polymerization time 3 H),Polymerization Rate(%) ([5]; polymerization time 4 H),Polymerization Rate(%) ([5]; polymerization time 5 H),Polymerization Rate(%) ([5]; polymerization time 6 H),solubility in Methanol (in words) ([2]; Methanol),also measured
"CC(C)(N=NC(C)(C)C(=N)NCCC(=O)O)C(=N)NCCC(=O)O.O.O [Example 1, 2,2'-azobis[N-(2-carboxyethyl)-2-methylpropionamidine] dihydrate]",25.2,51.0,74.3,89.2,93.5,94.4,95.4,10.0,6.7,22.3,34.2,53.3,64.8,70.6,74.7,,solubility in Methanol ([2]; Methanol): 36.9%; Decomposition Rate Constant at 50° C. [3]: 7.3e-06 s⁻¹; 10 hours half life temperature [4]: 57 °C
"CC(NC(=N)C(C)(C)N=NC(C)(C)C(=N)NC(C)C(=O)O)C(=O)O (stereo not drawn) [Reference Example 2, 2,2'-azobis[N-(1-carboxyethyl)-2-methylpropionamidine]]",,,,,,,,0.8,19.0,24.2,28.8,33.8,38.5,46.3,47.1,insoluble,
"CC(C)(N=NC(C)(C)C(=N)N)C(=N)N.Cl.Cl [Reference Example 3, 2,2'-azobis(2-methylpropionamidine) dihydrochloride]",32.0,37.1,69.9,88.4,91.4,93.1,92.2,,,,,,,,,,dead end phenomenon in emulsion polymerization ([1]; 50° C.): dead end phenomenon was observed; polymerization rate at 6 hour polymerization and later (in words) ([1]; 6 hours and later): reduced
"CC(C)(N=NC(C)(C)C(=N)NCC(=O)O)C(=N)NCC(=O)O [Reference Example 1, 2,2'-azobis(N-carboxymethyl-2-methylpropionamidine)]",,,,,,,,0.4,15.8,21.2,25.0,32.5,37.2,38.3,41.2,insoluble,
